Experimental data from patent publication US20110110940A1, “Methods for Enhancing the Efficacy of Vascular Disrupting Agents” (OXIGENE, INC., priority 2008, published 2011).

Tested on: GFP+ bone marrow cells in the viable tumor rim of LLC tumors
Assay: Homing/invasion of GFP+ bone marrow cells (CEPs) to the viable tumor rim and incorporation into CD31+ tumor vasculature, confocal microscopy of LLC tumor sections
Type: in vivo, mice
Conditions: 3 days after treatment
Text: Integrin ∘4β1 (VLA4) promotes the homing of circulating cells to the α4β1 ligand binding (VCAM) expressed at the tumor site (Jin et al. 2006. J Clin Invest 116:652-662). […] We determined whether α4β1 integrin contributes to CEP and possibly other types of bone-marrow pro-angiogenic cell invasion and homing to the viable tumor rim after VDA treatment. To this end, green fluorescent protein (GFP)positive bone marrow cells obtained from syngeneic UBI/GFP/BL6 donor mice (The Jackson Laboratory, Bar Harbor, Me.) were transplanted into lethally irradiated C57Bl/6 recipient mice (as described in Theise, et al. 2000. Hepatology 31:235-240). Three weeks later, mice were subcutaneously (s.c.) implanted with 0.5×10^6 Lewis Lung Carcinoma (LLC) cells (ATCC, Manassas, Va.).
When tumors reached 500 mm^3, mice were treated with an integrin α4β1 specific blocking antibody (Jin 2006), CA1P, or a combination of the two agents. After 3 days, tumor volumes were measured, mice were sacrificed and tumors were removed for the evaluation of necrosis (FIG. 1A) and incorporation of bone marrow cells to the tumor vasculature (FIG. 1B). […] FIG. 1C provides tumor volumes measured three days after treatment and normalized to untreated control tumors. *: 0.05>p>0.01; **: p<0.01. Tumor size was assessed with Vernier calipers by using the formula width^2×length×0.5. […]

## COc1cc(/C=C\c2ccc(OC)c(OP(=O)(O)O)c2OP(=O)(O)O)cc(OC)c1OC [CA1P, combretastatin A-1 diphosphate]
  invasion/homing of GFP+ cells (bone marrow cells) in the viable tumor rim (FIG. 1B): massive invasion of GFP^+ cells
CD31 staining
  incorporation of GFP+ cells into blood vessels (colocalization of GFP+ and CD31+ cells, FIG. 1B): some of which were found to incorporate into blood vessels
